Data published in publication PMC9814590, “Precise heteroatom doping determines aqueous solubility and self-assembly behaviors for polycyclic aromatic skeletons” (Communications Chemistry, 2022).
Converted amounts (≈) assume the structure as drawn.

Experiments:
Format in all cases: physicochemical
[1] = Hansen solubility parameters (HSP) from rated solvent library, optimized in HSPiP; Ra and RED versus water; conditions: for Water2 Ra: distance to water HSP of dense condition (18.1, 17.1, 16.9); for Water1 Ra: distance to water HSP of dilute condition (15.1, 20.4, 16.5); for δD (dispersion solubility parameter) / δH (hydrogen bonding solubility parameter) / δP (polar solubility parameter) / R0 (intrinsic distance parameter): experimentally rated solvent library, HSPiP; for R0 (intrinsic distance parameter): unit assumed; for Water2 RED (Ra/R0): water HSP of dense condition (18.1, 17.1, 16.9); for Water1 RED (Ra/R0): water HSP of dilute condition (15.1, 20.4, 16.5)
Text: To figure out why the doped N/O heteroatoms on the aromatic skeletons can both influence their hydrophilicity and aqueous solubility, we employed the Hansen solubility parameters (HSP) to interpret this phenomenon. This method developed by Charles Hansen et al.[30] has found broad use both in academia and industry for predicting the compatibility or affinity between two substances[31]–[34]. The key elements of HSP approach are three partial solubility parameters consisting of δD, δP, and δH, in which δD represents the dispersion solubility parameter, δP represents the polar solubility parameter, and δH represents the hydrogen bonding solubility parameter, respectively.
The three partial parameters define a three-dimensional coordinate for substances in a virtual solubility space (Hanse space). In principle, the closer the two coordinates of HSP are, the more likely the substances will dissolve in each other, which is consistent with the notion of “like dissolves like” rule. To better describe the degree of closeness, another solubility parameter “distance” (Ra) is introduced as follows:1 Ra2=4(δD2−δD1)^2+(δP2−δP1)^2+(δH2−δH1)^2 […]
Meanwhile, each substance has an intrinsic distance parameter R0, together with HSP as a center point that would define a solubility sphere in Hansen space. If the HSP coordinate of one substance is located inside the sphere of another substance, it indicates a high affinity between them. For solute and solvent cases, a dissolution process may happen. Otherwise, a low affinity is inferred if one substance is excluded from the sphere of another.
The total HSP data set of C1-C12 was experimentally tested and optimized from a combination of solvents library and listed in Table 1 (Supplementary Methods 1.3, Supplementary Fig. 1). […] For the unique H2O, there are three sets of HSP for different conditions. The first is the HSP of single-molecule (pure) water (15.5, 16.0, 42.3), in which the δH is more salient than δD and δP, it well explains the strong hydrogen bonding interactions between water molecules. However, its use in the prediction of solubility in water is not deemed appropriate in most cases. The second and third sets of HSP for water are those derived from solubility data and should be chosen case by case. The second set of HSP (15.1, 20.4, 16.5) was derived from experimental data set exceeding 1% soluble compounds in water, which may be appropriate for the diluted solute case (denoted as Water1). The third set of HSP (18.1, 17.1, 16.9) was derived from experimental data set of complete miscible compounds with water, which may be appropriate for the dense solute case (denoted as Water2).
1.3 Determination of solubility-related parameters […]
(2) Determination of Hansen solubility parameters (HSP)3
A collection of solvents was used to estimate the HSPs values of C2–C12, which includes dichloromethane, chloroform, toluene, diethyl ether, hexane, dioxane, pyridine, tetrahydrofuran, dimethyl sulfoxide, N, N-dimethyl formamide, acetone, acetonitrile, methanol and ethanol. If the specific solvent (0.5 mL) can dissolve at least 1.0 mg of certain solute would be rated as good solvent, otherwise as bad solvent. For C1, it’s expected that this molecule can only dissolve in nonpolar solvents (recrystallized from CCl4 according to literature report). We […]
methanol, ethanol and water would be bad solvents. These rated solvent s datasets for C1–C12 were imported to HSPiP software that developed by Dr. Hansen, Abbott and Hiroshi to optimize and obtain three partial HSPs values.

Water-contact angle test = experiment: Water-contact angle test
Text: (§1) With the 12 combinatorial molecules in hand, we initially examined their hydrophilicity and aqueous solubility. The water-contact angle test gave a clear hydrophilic assessment for these molecules (Table 1 and Supplementary Table 1). The conventional shake-flask method was employed to obtain the thermodynamic aqueous solubility data[29]. […]. In pursuit of both improving the hydrophilicity and aqueous solubility, we planned to introduce dual N/O heteroatoms to C1 skeleton as listed in group 2. […]. The turning point comes to C9 that doping two N atoms on the phenanthrene subcomponent besides the oxazole part. A water contact angle of 0° indicates the high hydrophilicity of C9. […].
Supplementary Table 1. Collected water contact angles for C2 – C12 […]

[2] = Shake-flask thermodynamic aqueous solubility (1H NMR quantification); conditions: for solubility at 24 h: water, thermodynamic from solid, D2O, room temperature
Text: as §1
1.3 Determination of solubility-related parameters
(1) Measurement of aqueous solubility
We applied the classic shake-flask method to determine the solubility data of C2–C12 in water. Typically, an excess amount of C2 was added to 1.0 mL of D2O, and the mixture was stirred at room temperature for 24 h. After that, the phase separation of saturated solution was finished through centrifugation. 1H NMR technology was applied to quantitatively analysis the concentration of solute using tetrahydrofuran as internal standard. Actually, we didn’t synthesize C1 to obtain its solubility data from experimental method because it’s obvious that this compound would be insoluble in water from reasonable judgement. Alternatively, due to its high hydrophobicity and measured water solubility data from C2–C8 counterpart, we can estimate this value must be at least lower than 0.1 mg / mL as well. […]

[3] = Apparent association constants by 1H NMR shift analysis (dimeric model); conditions: for Ka (CHCl3), apparent association constant: CHCl3, dimeric model; for Ka (MeOH-H2O), apparent association constant: MeOH-H2O (legend: H2O), dimeric model
Text: As is known, high concentration as a driving force to promote the molecular aggregation in solution is ubiquitous and well recognized[37],[38]. To compare the high concentration induced aggregation phenomenon with our case, we measured their apparent association constants (Ka) by ^1H NMR shift analysis after simplifying the aggregates to a dimeric model[39] (Supplementary Figs. 17–28). As listed in Fig. 3b, C10-C12 in chloroform display relatively weak association ability induced by high concentration factor. […] Meanwhile, the ^13C NMR spectra gave more informative details about C10-C12 in different existing states (Fig. 3c, Supplementary Figs. 13 and 14). […] In comparison, these signals became broadened and moved to upfield with a maximal 3.19 ppm shift in D2O conditions, which was almost in consistent with the solid-state ^13C magic-angle spinning (MAS) NMR spectrum despite its much broader signature. Moreover, the luminescent emissions of C10-C12 in various solvent ratios and solid-state were also screened (Fig. 3d, Supplementary Figs. 33 and 34). […] Unexpectedly, the maximal emissions in water are close to the solid state of C10-C12 (e.g., 472 nm in water versus 486 nm in solid for C10), indicative of a homologous excited-state energy transfer pathway.

Row | Compound | Water2 Ra [1] [MPa^0.5] | Water1 Ra [1] [MPa^0.5] | Water contact angle (Water-contact angle test; C1 not synthesized, deduced and estimated by comparison with C2) [°] | δD (dispersion solubility parameter) [1] | δH (hydrogen bonding solubility parameter) [1] | δP (polar solubility parameter) [1] | R0 (intrinsic distance parameter) [1] [MPa^0.5] | solubility at 24 h [2] [µg/mL] | Water contact angle (Water-contact angle test; C2-C12) [°] | Water2 RED (Ra/R0) [1] | Water1 RED (Ra/R0) [1] | Aqueous solubility [2] | Ka (CHCl3), apparent association constant [3] | Ka (MeOH-H2O), apparent association constant [3]
1 | C1=C(c2ccccc2)Cc2c1c1ccccc1c1ccccc21 [C1, 2-phenyl-1H-cyclophen[l]phenanthrene, reference compound] | 20.8 | 23.8 | >140 | – | – | – | – | – | – | – | – | – | – | –
2 | c1ccc(-c2nc3c4ccccc4c4ccccc4c3[nH]2)cc1 [C2] | 9.9 | 13.3 | – | 18.5 (MPa)^0.5 | 8.1 (MPa)^0.5 | 12.6 (MPa)^0.5 | 4.5 | < 100 | 140.6 | – | – | – | – | –
3 | c1ccc(-c2nc3c4cccnc4c4ncccc4c3[nH]2)cc1 [C3] | 10.5 | 14.1 | – | 17.9 (MPa)^0.5 | 10.1 (MPa)^0.5 | 9.1 (MPa)^0.5 | 5.4 | < 100 | 0 | 1.9 | – | – | – | –
4 | c1cnc2c(c1)c1nc(-c3ccncc3)[nH]c1c1cccnc12 [C4] | 3.8 | 5.5 | – | 16.4 (MPa)^0.5 | 16.1 (MPa)^0.5 | 15.6 (MPa)^0.5 | 7.5 | < 100 | 0 | – | – | – | – | –
5 | c1cncc(-c2nc3c4cccnc4c4ncccc4c3[nH]2)c1 [C5] | 3.7 | 5.3 | – | 16.4 (MPa)^0.5 | 16.5 (MPa)^0.5 | 15.8 (MPa)^0.5 | 7 | < 100 | 0 | – | – | – | – | –
6 | c1ccc(-c2nc3c4cccnc4c4ncccc4c3[nH]2)nc1 [C6] | 5.9 | 7.9 | – | 16.1 (MPa)^0.5 | 16.8 (MPa)^0.5 | 12.8 (MPa)^0.5 | 7.9 | < 100 | 0 | – | – | – | – | –
7 | c1ccc(-c2nc3c4ccccc4c4ccccc4c3o2)cc1 [C7] | 13.9 | 18.2 | – | 19.5 (MPa)^0.5 | 7.5 (MPa)^0.5 | 7.2 (MPa)^0.5 | 6.6 | < 100 | 135.2 | – | 2.8 | barely soluble in water | – | –
8 | c1ccc(-c2nc3c4ccccc4c4ccccc4c3o2)nc1 [C8] | 13.8 | 18.1 | – | 19.4 (MPa)^0.5 | 7.8 (MPa)^0.5 | 7.0 (MPa)^0.5 | 8.8 | < 100 | 128.6 | 1.6 | 2.1 | barely soluble in water | – | –
9 | c1ccc(-c2nc3c4cccnc4c4ncccc4c3o2)cc1 [C9] | 5.1 | 10.8 | – | 18.6 (MPa)^0.5 | 15.5 (MPa)^0.5 | 12.3 (MPa)^0.5 | 10 | 900 (≈ 3030 µM) | 0 | – | 1.1 | slightly soluble | – | –
10 | c1cnc2c(c1)c1nc(-c3ccncc3)oc1c1cccnc12 [C10] | 10.8 | 15 | – | 17.7 (MPa)^0.5 | 15.8 (MPa)^0.5 | 6.3 (MPa)^0.5 | 10.7 | 40000 (≈ 134000 µM) | 0 | – | 1.4 | – | 8(2) M^-1 | 772(47) M^-1
11 | c1ccc(-c2nc3c4cccnc4c4ncccc4c3o2)nc1 [C12] | 10.9 | 16.4 | – | 19.4 (MPa)^0.5 | 17.2 (MPa)^0.5 | 6.5 (MPa)^0.5 | 12.3 | 150000 (≈ 503000 µM) | 0 | – | 1.3 | – | 13(1) M^-1 | 918(77) M^-1
